Drawing on the supplement of paper PMC10702517, this text covers chemical recovery for 63 compounds.

Structures can show the parent of a compound that is named as a salt. ± gives the standard deviation.

The data set can be described thus: chemical recovery from spiked human plasma; higher = better extraction. The note with it: pooled human plasma.
[1] abbreviates: extraction method: SPE only (HLB 96-well), PES comparison experiment.
Setting [2] is: extraction method: SPE only (HLB 96-well).
[3] abbreviates: extraction method: solvent precipitation (ACN + hexane).
The mark [4] stands for this setting: extraction method: PES+SPE (3 d PDMS equilibration then HLB SPE).

Consider `CCOP(=S)(OCC)Oc1nc(Cl)c(Cl)cc1Cl` [Chlorpyrifos], for which, under setting [1], the chemical recovery was found to be 33.3 ± 7.2%. Under setting [2], `C[C@H](CCC(=O)O)[C@H]1CC[C@H]2[C@@H]3[C@H](O)C[C@@H]4C[C@H](O)CC[C@]4(C)[C@H]3C[C@H](O)[C@]12C` [Cholic-acid] came in with a chemical recovery of 48.4 ± 3.9%. `c1ccc2c(c1)ccc1c3ccccc3ccc21` [Chrysene] yielded a chemical recovery under setting [2] of 10.9 ± 2.5%. As to `CN/C(=N\CCSCc1nc[nH]c1C)NC#N` [Cimetidine], the chemical recovery under setting [3] came to 54.8 ± 1.7%. For the compound `CCCC1CC(C(=O)NC(C(C)Cl)C2OC(SC)C(O)C(O)C2O)N(C)C1` (stereo unspecified) [Clindamycin], the chemical recovery is, setting by setting: under setting [4], 36.7 ± 3.7%; under setting [2], 37.9 ± 2.5%; under setting [3], 65.5 ± 3.8%. Under setting [1], `Clc1ccccc1C(c1ccccc1)(c1ccccc1)n1ccnc1` [Clotrimazole] showed a chemical recovery of 56.3 ± 11%. Consider `COc1cc2c(c(OC)c1OC)-c1ccc(OC)c(=O)cc1[C@@H](NC(C)=O)CC2` [Colchicine], for which the chemical recovery came to 48.5 ± 3.6% under setting [4], 45 ± 3.9% under setting [2] and 70 ± 2.5% under setting [3]. `Cc1ccc(-c2c(Cl)nc(C#N)n2S(=O)(=O)N(C)C)cc1` [Cyazofamid] showed a chemical recovery under setting [2] of 41 ± 2%. Compound `O=C1CCCCCCCCCCC1` [Cyclododecanone] yielded a chemical recovery under setting [2] of 4.5 ± 3.9%. Turning to `NC1CCCCC1` [Cyclohexylamine], the chemical recovery runs as follows: under setting [4], 2.9 ± 1.6%; under setting [2], 2.07 ± 3.6%; under setting [3], 35.9 ± 9.5%. As for `O=C(c1ccccc1)C1CCCCC1` [Cyclohexylphenylketone], the chemical recovery under setting [2] is 9.88 ± 8.6%.

As for `OC[C@@H](O)[C@@H](O)[C@H](O)[C@@H](O)CO` [D-Glucitol], the chemical recovery under setting [2] was determined as 3.85 ± 1.9%. In the case of `CCN(CC)C(=O)c1cccc(C(=O)O)c1` [DEET-carboxylic-acid], the chemical recovery under setting [4] is 42.3 ± 4.4%, the chemical recovery under setting [2] is 43.9 ± 4.5% and the chemical recovery under setting [3] turned out to be 68.1 ± 5.1%. `CCN(CC)C(=O)c1cccc(C)c1` [DEET]: the chemical recovery is, setting by setting: under setting [2], 30.1 ± 3%; under setting [3], 52.6 ± 4.4%.

Regarding `CC(C)CCCCCCOC(=O)C1CCCCC1C(=O)OCCCCCCC(C)C` (stereo unspecified) [DINCH], the chemical recovery by setting is: under setting [2], 6.04 ± 3.4%; under setting [1], 4.77 ± 1.6%. For the compound `O=C(O)c1cc(SSc2ccc([N+](=O)[O-])c(C(=O)O)c2)ccc1[N+](=O)[O-]` [DTNB], the chemical recovery by setting is: under setting [4], 0.204 ± 0.051%; under setting [3], 0.0596 ± 0.028%. Under setting [1], `C1CCC2CCCCC2C1` (stereo unspecified) [Decahydronaphthalene] had a chemical recovery of 3.14 ± 1.3%. On to `CCCCCCCCCCOS(=O)(=O)O` [Decylsulfate], for which the chemical recovery reads like this: under setting [2], 18.8 ± 4.3%; under setting [1], 30.8 ± 9%; under setting [3], 50.4 ± 1.6%. For the compound `CC(C)c1ccc2c(c1)CC[C@H]1[C@](C)(C(=O)O)CCC[C@]21C` [Dehydroabietic-acid], the chemical recovery under setting [2] was 29.7 ± 1.9%. For the compound `CC[S+]([O-])CCSP(=O)(OC)OC` (stereo unspecified) [Demeton-S-methyl-sulfoxide], the chemical recovery under setting [4] was determined as 35.2 ± 3.8%, the chemical recovery under setting [2] was determined as 30.2 ± 2.2% and the chemical recovery under setting [3] was 42.7 ± 12%. For the compound `C[C@H](CCC(=O)O)[C@H]1CC[C@H]2[C@@H]3CC[C@@H]4C[C@H](O)CC[C@]4(C)[C@H]3C[C@H](O)[C@]12C` [Deoxycholic-acid], the chemical recovery worked out at 38.5 ± 8.1% under setting [2] and 75.8 ± 6.6% under setting [3]. Consider `CNCCCN1c2ccccc2CCc2ccccc21` [Desipramine], for which the chemical recovery under setting [4] was determined as 1.49 ± 0.66%, the chemical recovery under setting [2] is 35.8 ± 2.3% and the chemical recovery under setting [3] was determined as 62.7 ± 6.1%. Regarding `CCNc1nc(N)nc(Cl)n1` [Desisopropylatrazine], the chemical recovery was found to be 50.7 ± 4.7% under setting [4] and 38.9 ± 2.4% under setting [2]. `COc1ccc2c(c1)[C@]13CCCC[C@@H]1[C@H](C2)N(C)CC3` [Dextromethorphan]: the chemical recovery was 0.431 ± 0.16% under setting [4], 39.3 ± 3.3% under setting [2] and 70.1 ± 5.1% under setting [3].

Turning to `CCCCOP(=O)(O)OCCCC` [Di-n-butyl-phosphate], the chemical recovery runs as follows: under setting [4], 40.8 ± 6.1%; under setting [2], 40.5 ± 3.9%. As for `CCCCCOC(=O)c1ccccc1C(=O)OCCCCC` [Di-n-pentylphthalate], under setting [2], the chemical recovery was found to be 29.6 ± 6.2%. For `CC(=O)NCCNC(C)=O` [Diacetylethylenediamine], the chemical recovery by setting is: under setting [4], 0.534 ± 0.055%; under setting [2], 0.155 ± 0.14%. Under setting [2], `c1ccc2c(c1)sc1ccccc12` [Dibenzothiophene] came in with a chemical recovery of 16.2 ± 6.1%. In the case of `CCCCOC(=O)CCCCCCCCC(=O)OCCCC` [Dibutyl-sebacate], the chemical recovery under setting [2] is 28.7 ± 6.6%. `COc1c(Cl)ccc(Cl)c1C(=O)O` [Dicamba]: the chemical recovery is, setting by setting: under setting [4], 42.3 ± 2.6%; under setting [2], 37.9 ± 3.7%.

For the compound `Oc1cc(Cl)ccc1Oc1ccc(Cl)cc1` [Diclosan], the chemical recovery runs as follows: under setting [2], 32.1 ± 2.6%; under setting [3], 41.7 ± 3.2%. Consider `COP(=O)(OC)O/C(C)=C/C(=O)N(C)C` [Dicrotophos], for which the chemical recovery worked out at 38.5 ± 3.5% under setting [4], 37.3 ± 0.93% under setting [2] and 59.3 ± 8.9% under setting [3]. As to `O=C(CC(C(=O)OC1CCCCC1)S(=O)(=O)O)OC1CCCCC1` (stereo unspecified) [Dicyclohexyl sulfosuccinate], the chemical recovery worked out at 37.7 ± 3.3% under setting [4], 27.6 ± 3.1% under setting [2], 37.1 ± 6.9% under setting [1] and 71.8 ± 3.4% under setting [3]. Regarding `O=C(CC(C(=O)OC1CCCCC1)S(=O)(=O)O)OC1CCCCC1` (stereo unspecified) [Dicyclohexyl-sulfosuccinate], the chemical recovery stood at 57.7 ± 5.7% under setting [4] and 44.3 ± 2.2% under setting [2]. Take `C1CCC(NC2CCCCC2)CC1` [Dicyclohexylamine]: the chemical recovery reads like this: under setting [2], 35.2 ± 2.1%; under setting [3], 53.8 ± 6.1%. On to `O=C(NC1CCCCC1)NC1CCCCC1` [Dicyclohexylurea], for which the chemical recovery is 54.4 ± 4.7% under setting [4], 56.9 ± 0.74% under setting [2] and 78.6 ± 1.8% under setting [3]. Regarding `CCCCCCCCCC[N+](C)(C)CCCCCCCCCC` [Didecyldimethylammonium], the chemical recovery under setting [2] worked out at 67.1 ± 21%. Same read-out and setting: the same measure for `COCCOCCO` [Diethyleneglycolmonomethylether]: 1.78 ± 2.6%.

Consider `O=C(Nc1ccc(F)cc1F)c1cccnc1Oc1cccc(C(F)(F)F)c1` [Diflufenican], for which the chemical recovery under setting [2] worked out at 31 ± 3.5%, the chemical recovery under setting [1] was 35.6 ± 6.6% and the chemical recovery under setting [3] was determined as 52.3 ± 4.8%. Under setting [2], `COCCOCCOC` [Diglyme] gave a chemical recovery of 11.5 ± 3.1%. On the same count and under the same terms, for `CCCCCCOC(=O)c1ccccc1C(=O)OCCCCCC` [Dihexyl-phthalate] the value was 20.6 ± 3.2%; for `CC(=O)CCC1C(C)=CCCC1(C)C` (stereo not drawn) [Dihydro-alpha-ionone], 3.54 ± 6.1%. In the case of `CC(C)CCCCOC(=O)c1ccccc1C(=O)OCCCCC(C)C` [Diisoheptyl-phthalate], the chemical recovery was determined as 12.9 ± 3.1% under setting [2] and 103 ± 14% under setting [3]. Under setting [2], `CC(C)CCCCCCOC(=O)c1ccccc1C(=O)OCCCCCCC(C)C` [Diisononyl-phthalate] yielded a chemical recovery of 23.4 ± 7.7%.

Consider `COC(=O)c1ccc(C(=O)OC)cc1` [Dimethyl-terephthalate], for which the chemical recovery under setting [3] turned out to be 64.5 ± 14%. Consider `Cc1c(N(C)C)c(=O)n(-c2ccccc2)n1C` [Dimethylaminophenazone], for which the chemical recovery turned out to be 6.91 ± 1.9% under setting [4], 39.3 ± 2.3% under setting [2] and 73.8 ± 2% under setting [3]. With `COC(=O)c1ccccc1C(=O)OC` [Dimethylphthalate], the chemical recovery by setting is: under setting [4], 46 ± 3.9%; under setting [3], 67.3 ± 4.1%. On to `CC(C1=C(CCN(C)C)Cc2ccccc21)c1ccccn1` (stereo unspecified) [Dimetindene], for which the chemical recovery runs as follows: under setting [4], 0.267 ± 0.076%; under setting [2], 24.1 ± 2.6%; under setting [3], 58.5 ± 5.4%. Turning to `CN/C(=N/CC1CCOC1)N[N+](=O)[O-]` (stereo unspecified) [Dinotefuran], the chemical recovery runs as follows: under setting [2], 27.4 ± 2.9%; under setting [3], 76.3 ± 3.7%. In turn, `CC(C)(C)c1cc([N+](=O)[O-])cc([N+](=O)[O-])c1O` [Dinoterb] had a chemical recovery under setting [4] of 48.5 ± 5%. For the compound `CCCCC(CC)COC(=O)CC(C(=O)OCC(CC)CCCC)S(=O)(=O)O` (stereo unspecified) [Dioctylsulfosuccinate], under setting [2], the chemical recovery is 26.5 ± 1.6%. As for `CCN(CCC#N)c1ccc(N=Nc2c(Br)cc([N+](=O)[O-])cc2Br)cc1` [Disperse-Orange-61], the chemical recovery is, setting by setting: under setting [2], 39.7 ± 11%; under setting [3], 80.2 ± 8.3%. As to `CCOP(=S)(OCC)SCCSCC` [Disulfoton], the chemical recovery under setting [2] was 4.52 ± 2%. As for `O=C1CCCCCCCCCCCN1` [Dodecane-12-lactam], the chemical recovery under setting [4] was determined as 47.4 ± 4.3%, the chemical recovery under setting [2] was 53.4 ± 0.92% and the chemical recovery under setting [3] worked out at 66.7 ± 1.7%. Turning to `CCCCCCCCCCCCOS(=O)(=O)O` [Dodecyl sulfate], the chemical recovery under setting [2] came to 33.8 ± 0.79%. As to `Cc1ccc(O)c(-n2nc3ccccc3n2)c1` [Drometrizole], the chemical recovery turned out to be 15.4 ± 9.1% under setting [2] and 54.1 ± 4.6% under setting [3]. For `CNCC[C@H](Oc1cccc2ccccc12)c1cccs1` [Duloxetine], the chemical recovery under setting [4] was found to be 1.6 ± 0.45%, the chemical recovery under setting [2] was determined as 34.8 ± 2.4% and the chemical recovery under setting [3] stood at 59.7 ± 5.1%. The compound `CC[C@H](C)[C@H]1O[C@]2(C=C[C@@H]1C)C[C@@H]1C[C@@H](C/C=C(\C)[C@@H](O[C@H]3C[C@H](OC)[C@@H](O[C@H]4C[C@H](OC)[C@@H](NC)[C@H](C)O4)[C@H](C)O3)[C@@H](C)/C=C/C=C3\CO[C@@H]4[C@H](O)C(C)=C[C@@H](C(=O)O1)[C@]34O)O2` [Emamectin-B1a] registered a chemical recovery under setting [2] of 17.2 ± 7.2%. With `Nc1nc(=O)n([C@@H]2CS[C@H](CO)O2)cc1F` [Emtricitabine], the chemical recovery stood at 14.2 ± 4.3% under setting [2] and 71.1 ± 4.1% under setting [3]. The like results for `O=C1C2CC3C1C1(Cl)C(Cl)C4(Cl)C2C3C1(Cl)C4(Cl)Cl` (stereo unspecified) [Endrin ketone] were, in that order, 7.89 ± 2.1% and 15.3 ± 1.4%.

Take `CCCCc1ncc(/C=C(\Cc2cccs2)C(=O)O)n1Cc1ccc(C(=O)O)cc1` [Eprosartan]: the chemical recovery under setting [2] is 44.3 ± 4.6%. Regarding `CC(C)[C@H](C(=O)O[C@H](C#N)c1cccc(Oc2ccccc2)c1)c1ccc(Cl)cc1` [Esfenvalerate], the chemical recovery under setting [3] is 118 ± 16%. For the compound `CCOC(=O)c1ccc(O)cc1` [Ethylparaben], the chemical recovery was determined as 56.1 ± 4% under setting [4], 45.3 ± 3% under setting [2] and 66.3 ± 2.4% under setting [3].
